# Source: patent US11434535B2, “Centromere/kinetochore protein genes for cancer diagnosis, prognosis and treatment selection” (The Regents of the University of California, priority 2014, dated 2022)
# “Also recorded” adds a separate entry of the source.
# Key:
# gastric cancers = test: K-M Plotter meta-analysis on chemo-sensitivity, gastric cancer; format: in vivo, human; details: gastric cancer patients
# Source text: (§1) To address small sample sizes in individual datasets when predicting drug sensitivity, we performed meta-analysis on chemo-sensitivity for several cancer types using K-M Plotter.
# (§2) For meta-analysis using K-M Plotter for prognosis, we chose to use the top CES terile as high CES group, and the rest as low CES group. For meta-analysis on sensitivity to adjuvant therapies using K-M Plotter, we chose to use automatically computed best performing CES threshold for patient stratification in all dataset to increase detection sensitivity, even though tertile or median method gave similar results with statistical significance for many datasets. The K-M Plotter software only incorporates genes with probes present on both U133A+B to ensure comparability between datasets for meta-analysis, thus it excluded 7 CEN/KT genes including CENP-H, -W, -L, -K, -P, SPC24 and NUF2, of which 5 are also CES genes. Therefore, we used the 9 remaining CES genes, e.g., CENP-A, HJURP, MIS18B, CENP-N, CENP-M, CENP-U, ZWINT, NDC80, and SPC25, as a simplified version of the CES when using K-M Plotter.
# [1] = system: late stage ovarian cancers; test: K-M Plotter meta-analysis on chemo-sensitivity, ovarian cancer overall survival; format: in vivo, human; details: ovarian cancer patients, mostly late stage, under the named adjuvant therapy
# Source text: as §1, §2
# [2] = system: CCLE (Cancer Cell Line Encyclopedia) cell lines; test: CCLE cell lines: IC50 of Topo I inhibitors versus CES value; format: cell-based; details: CCLE cell lines binned into CES quartiles
# Source text: We mined the Cancer Cell Line Encyclopedia (CCLE) data, which contains information on both drug treatment and gene expression (Barretina et al., 2012). CCLE cell lines were binned into quartiles according to their CES values, we compared the top and bottom CES quartiles for the IC50 of the Topo I inhibitors and DNA damaging agents irinotecan and topotecan.
# The Statistical Analysis of Microarrays (SAM) Excel add-on package (the website at www-stat.stanford.edu/˜tibs/SAM/) was used to identify differences between normal and tumor tissues in expression levels of CEN/KT genes (FDR≤0.05 and fold changes ≥2). Sample clustering was performed on the CEN/KT gene expression profiles using hierarchical clustering in Cluster 3.0 and Java Treeview 1.1.6r4 to group samples by centroid. For CCLE drug sensitivity, analysis was performed in Excel (Microsoft) and GraphPad. Kaplan-Meier survival curves for the CES system were generated for patients to evaluate differences in disease-free survival (DFS), stratified into groups of high (upper tertile), intermediate (middle tertile) and low (lower tertile) CES to evaluate differences in disease-free survival (DFS). […] Five-year survival was analyzed by chi-square test for significance.
# ER+ breast cancer = test: K-M Plotter meta-analysis on chemo-sensitivity, ER+ breast cancer relapse-free survival; details: ER+ breast cancer patients under the named therapy
# Source text: as §1, §2
smiles,measurement,setting,value
"O=c1[nH]cc(F)c(=O)[nH]1 [5-FU, 5-fluorouracil]",prediction power of CES for sensitivity,gastric cancers,no significant prediction power
CC[C@@]1(O)C(=O)OCc2c1cc1n(c2=O)Cc2cc3c(CN(C)C)c(O)ccc3nc2-1 [topotecan],"HR associated with high CES, overall survival",[1],.63
same,"average IC50, top CES quartile compared to bottom CES quartile",[2],significantly lower IC50s; also recorded: significantly more sensitive
CCc1c2c(nc3ccc(OC(=O)N4CCC(N5CCCCC5)CC4)cc13)-c1cc3c(c(=O)n1C2)COC(=O)[C@]3(O)CC [irinotecan],"average IC50, top CES quartile compared to bottom CES quartile",[2],significantly lower IC50s; also recorded: significantly more sensitive
CC/C(=C(\c1ccccc1)c1ccc(OCCN(C)C)cc1)c1ccccc1 [tamoxifen],"HR associated with high CES, relapse-free survival (RFS)",ER+ breast cancer,1.80
